Measurements from US20020077365A1, “Method for increasing the effectiveness of antiinfective” (The University of Texas System, priority 2000, published 2002).
Read-outs that look alike come from different tables or passages of the source.

Experiments:
[1] = test system: S. cerevisiae yeast cells (YMR4 and INVSC, with or without AtPGP-1); assay: Yeast growth in suspension with extracellular ATP, adenosine, phosphate and cycloheximide (turbidity OD600); format: cell-based; conditions: for yeast growth in high levels of ATP: 100 mM ATP, FIG. 13; for effect on resistance to cycloheximide: YMR4 cells, added to media with cycloheximide, 72 hours, FIG. 14
Procedure: Cell lines: Cell lines were the same as those described above in Example 2 and 3. YMR4 MDR1 is the phosphatase mutant yeast strain overexpressing AtPGP-1; YMR4 pVT11 contains vector alone; INVSC MDR1 is the wild-type yeast strain overexpressing AtPGP-1; and INVSC pVT101 contains vector alone.
Selection in drug: To create drug resistant yeast strains, all four cell lines were grown up in the presence of 500 ng/ml of cycloheximide, and transferred to other cycloheximide containing plates after a period of four to six days. This transfer of cell lines and subculturing continued such that the yeast cells grew in the presence of cycloheximide for a period of at least a month.
Growth of cells in suspension for ATP and drug selection experiments: Cells were transferred into 5 ml YNB -URA liquid media for turbidity measurements. All cell lines (both non-drug selected and drug-selected) were grown in media with the addition of either nothing, 500 ng/ml cycloheximide, 100 mM ATP, or 500 ng/ml cycloheximide and 100 mM ATP. Turbidity readings were taken after 48 hours.
Growth of cell lines in suspension for salvage pathway experiments: All cell lines were grown in liquid media either containing drug (for the drug selected lines) or not containing drug (for the non-drug selected lines). When the cultures reached a turbidity of 1.00 as measured at a wavelength of 600 in a spectrophotometer (OD600=1.00), 10 μl of each culture was then removed and placed in either media with nothing added, 3 mM potassium phosphate; 3 mM adenosine; 9 mM potassium phosphate and 3 mM adenosine (for controls); potassium phosphate and cycloheximide; adenosine and cycloheximide; adenosine, cycloheximide, and potassium phosphate. Cell cultures were further grown for 72 hours, and their turbidity was determined by OD600 readings on a spectrophotometer.

[2] = test system: Arabidopsis thaliana WS wild-type plants; assay: Plant sensitivity to herbicides with or without ecto-phosphatase inhibitor; format: in vivo; conditions: inhibitor 5 μg/ml; surflan solution 0.2-20 μl/ml in germination media
Procedure: Increasing Plant Sensitivity to Herbicides: Arabidopsis thaliana WS wild-type plants were plated on germination media containing two commonly used herbicides, surflan and pendimethalin, in the presence and absence of an ecto-phosphatase inhibitor of Formula II and monitored for their growth in a 22° C. incubator under constant fluorescent illumination.
More specifically, germination media was prepared containing 20 μl/ml, 10 μl/ml, 2 μl/ml, 1 μl/ml, and 0.2 μl/ml of a surflan solution made at the manufacturer's recommended concentration. Compound of Formula II was added to a portion of the germination media at a final concentration of 5 μg/ml.
Arabidopsis thahiana WS wild-type seeds were surface sterilized in a 20% bleach solution for 20 minutes, washed three times in double distilled waster, and resuspended in 0.1% agarose solution. The seeds were then pipetted onto plates containing approximately 3 ml of germination media containing the various concentrations of surflan with and without compound of Formula II. All plates were placed in a 22° C. incubator under constant fluorescent illumination. Growth was assessed daily.
Similar experiments were performed with pendimethalin in the presence and absence of compound of Formula II.

[3] = test system: ecto-apyrase of plasma membrane of cholinergic nerve terminal of Torpedo marmorata electric organs; conditions: Marti et al., 1996; cited from earlier work
[4] = test system: wild-type yeast strain INVSC with plasmid pvtl01-U; assay: Yeast filter disk zone of inhibition with fungicide chlorothalonil with or without ecto-phosphatase inhibitor; format: cell-based, S. cerevisiae; conditions: plates without ecto-phosphatase inhibitor, 48 hours
Procedure: Increasing Yeast Sensitivity to Fungicide. Additional experiment were performed to test the ability of ecto-phosphatase inhibitors to increase the effectiveness of the commonly used fungicide chlorothalonil. Yeast was plated on media with or without an ecto-phosphatase inhibitor of Formula X where a paper filter disk soaked in the fungicide was added to the plate. After 48 hours, the zone of inhibition of yeast growth around the filter disk was calculated.
The wild-type yeast strain INVSC with plasmid pvtl01-U (for selection on media lacking uracil) was used in all experiments and each experiment was performed in triplicate. Media used was made by combining YNB (Bio 101, Vista, Calif.), the drop out supplement CSM-URA (Bio 101, Vista, CA), and glucose in water. […]
Twenty μl of an overnight saturated culture of yeast was plated onto each plate, spread, and allowed to dry for 20 minutes. […] The zone of inhibition of yeast growth around the disk was assessed after 48 hours.
Plates with chlorothalonil disks indeed contained a zone of inhibition surrounding the disk. […] The zone of inhibition was calculated by measuring the radius from the center of the disk to the point of noticeable yeast growth (at least 10 measurements per plate), averaging the radii measurements, and using the average radius of the plates to calculate the circular area of the zone of inhibition.

[5] = test system: Arabidopsis thaliana plants (wild-type and AtPGP-1 overexpressing); format: in vivo; conditions: for germination rate: substance alone (cycloheximide 500 ng/ml or phosphatase inhibitor 1 mM), after 10-20 days; for germination: phosphatase inhibitor 1 mM plus cycloheximide 500 ng/ml
Procedure: Plant Growth: Arabidopsis seeds were sown in a solid germination media containing MS salts (Sigma Chemical, St. Louis, Mo.), 2% sucrose, 0.8% agar, and vitamins (Valvekens et al., 1992). For selection assays, one of the following, or a combination of both, was added to media (cooled to less than 50° C. before adding) immediately prior to pouring into plates: cycloheximide at a final concentration of 500 ng/ml; α,β-methyleneadenosine 5′-diphosphate at a final concentration of 1 mM. Plant growth was measured by germination percentage after 10-20 days. All other materials and methods were discussed above in Example 2.

[6] = test system: Saccharomyces cerevisiae INVSC1 and YMR4; assay: Yeast growth selection in drug (plates / liquid turbidity); format: cell-based
Text: Expression of AtPGP-1 in yeast: The AtPGP-1 cDNA (Arabidopsis thaliana MDR gene, accession #X61370) was subdloned into pVT101 downstream of the ADH promoter to create the AtPGP-1/pVT101 construct. AtPGP-1/pVT101 and pVT101 were transformed into Saccharomyces cerevisiae INVSC1 (genotype: MAT, his3-1, leu2, trp1-289, ura3-52) and YMR4 (genotype: MAThis3-11,15, leu2-3, 112ura35, can Res pho5, 3::ura31) by a PEG lithium acetate procedure (Eble, 1992) and selected on uracil dropout medium.
Yeast Growth: Yeast were grown at 30° C. under conditions of constant selection for uracil auxotrophy. YNB (Bio101, Vista, Calif.) supplemented with CSM (uracil dropout) and 2% glucose was used to grow strains having pVT101 constructs. Cycloheximide (Sigma Chemical, St. Louis, Mo.) was added to liquid media or spread on solid media to achieve a final concentration of 500 ng/ml. Nigericin (Sigma Chemical, St. Louis, Mo.) was added to liquid media or spread on solid media to achieve a final concentration of 25 μg/ml. Yeast strains used in cycloheximide selection assays were always propagated in the presence of the cycloheximide on plates and then streaked onto new plates containing drug or no drug, such that induced resistance existed in each strain at the time of the start of the assay. For selection assays on plates, single colonies were streaked; for selection in liquid media 0.01 ml of saturated culture was added to fresh media containing the drug. The plates shown in figures were grown for 3-5 days before photographs were taken. Yeast selection assays in liquid media were quantitated by turbidity as measured by absorbance at OD600.
The same result was obtained when the yeast strains were cultured in nigericin (FIG. 3C, FIG. 3D, FIG. 5B, FIG. 5C). In FIG. 3C and 3D, starting from the top of the dish clockwise, the cells are as follows: INVSC1 (wild-type) overexpressing AtPGP-1, YMk4 containing the vector alone, YMR4 overexpressing AtPGP-I, and INVSC1 containing the vector alone. When grown without drug, all the cells grow (FIG. 3C). […]

[7] = YMR4 (extracellular phosphatase deficient), vector alone, cycloheximide 500 ng/ml or nigericin 25 μg/ml

With `Nc1ncnc2c1ncn2[C@@H]1O[C@H](COP(=O)(O)OP(=O)(O)OP(=O)(O)O)[C@@H](O)[C@H]1O` [ATP] the “yeast growth in high levels of ATP and drug” value ([1]; 100 mM ATP plus 500 ng/ml cycloheximide, cell lines previously resistant to drug) was “unable to grow”, the “yeast growth in high levels of ATP” value ([1]; cells not previously selected in drug) was “able to grow” and the “yeast growth in high levels of ATP” value ([1]; cells previously grown in drug (cycloheximide-selected), not overexpressing AtPGP-1) was “not able to grow”.
For `Cc1cccc(NS(=O)(=O)c2ccc(-c3ccccc3)cc2)c1` [Formula II], the “effectiveness of surflan as weed killer in presence of inhibitor” value [2] was “equally effective weed killer at a five fold less concentration”.
In the case of `Cc1ccc(C(=O)Nc2ccc(S(=O)(=O)O)c3cc(S(=O)(=O)O)cc(S(=O)(=O)O)c23)cc1NC(=O)c1cccc(NC(=O)Nc2cccc(C(=O)Nc3cc(C(=O)Nc4ccc(S(=O)(=O)O)c5cc(S(=O)(=O)O)cc(S(=O)(=O)O)c45)ccc3C)c2)c1` [Suramin, 8,8′[Carbonylbis[imino-3,1-phenylenecarbonylimino(4-methyl-3,1-phenylene)carbonylimino]]bis-1,3,5-naphthalenetrisulfonic acid], the “inhibition of ecto-apyrase activity” value [3] is given as “potent non-competitive inhibitor”.
In the case of `Nc1ncnc2c1ncn2[C@@H]1O[C@H](CO)[C@@H](O)[C@H]1O` [adenosine], the “effect on resistance to cycloheximide” value [1] was “did not enhance resistance”.
With `N#Cc1c(Cl)c(Cl)c(Cl)c(C#N)c1Cl` [chlorothalonil] the “average radius of inhibition” value [4] was 0.33 in.
In the case of `C[C@@H]1C[C@@H]([C@H](O)CC2CC(=O)NC(=O)C2)C(=O)[C@@H](C)C1` [cycloheximide], the germination rate ([5]; AtPGP-1 overexpressing plants) was 50%, the germination rate ([5]; wild-type plants) was 2% and the “yeast growth in drug” value [6, 7] was “did not grow”. For the same compound, the “yeast growth in drug” value ([6]; wild-type INVSC1, cycloheximide 500 ng/ml) was “did grow”.
For `CO[C@@H]1C[C@@H](C[C@H]2CC[C@H](C)[C@H]([C@@H](C)C(=O)O)O2)O[C@]2(O[C@](C)([C@H]3CC[C@@](C)([C@@H]4O[C@@H]([C@H]5O[C@@](O)(CO)[C@H](C)C[C@@H]5C)C[C@@H]4C)O3)C[C@H]2C)[C@@H]1C` [nigericin], the “yeast growth in drug” value [6, 7] was “reduced growth”.
With `O=P(O)(O)O` [phosphate, potassium phosphate] the “effect on resistance to cycloheximide” value [1] was “did not enhance resistance”.
For `Nc1ncnc2c1ncn2[C@@H]1O[C@H](COP(=O)(O)CP(=O)(O)O)[C@@H](O)[C@H]1O` [α,β-methyleneadenosine 5′-diphosphate], the germination ([5]; AtPGP-1 overexpressing plants) was “no germination at all”, the germination rate ([5]; AtPGP-1 overexpressing plants) was 83% and the germination ([5]; wild-type plants) was “no germination at all”. For the same compound, the germination rate ([5]; wild-type plants) was 90%.
